“And” between values parts separate entries of the source, which are not always exact repeats. Identical values can stand only once.
Key:
[1] = Necropsy and histopathology examination of lactating sows at 21 d; details: for Kidney: Focal interstitial nephritis (number of sows) / Kidney: Mild tubular ectasia (number of sows) / Kidney: Within normal limits (number of sows) / Liver: Within normal limits (number of sows) / Small Intestine: Within normal limits (number of sows) / Stomach: Within normal limits (number of sows): 21 d
Description: (§1) Thereafter, sows and piglets in all groups were humanely euthanized and examined for macroscopic signs of NSAID toxicity. Necropsies were performed on all animals to inspect for macroscopic signs of NSAID toxicity. Samples of kidney, liver, small intestine and stomach were sectioned into 0.5-1 cm slices and placed in plastic jars containing 10% buffered formalin in a 10:1 formalin:tissue ratio for histopathology examination.
(§2) Formalin-fixed sections of kidney, liver, small intestine and stomach from sows and 3 piglets/litter were trimmed and positioned in cassettes loaded into an automated tissue processor (Sakura VIP 5, Sakura Finetek, Torrance, Calif.) for overnight paraffin infiltration. Processed tissues in cassettes were then placed in a paraffin bath (Sakura Tissue-Tek TEC 5, Sakura Finetek, Torrance, Calif.) after which they were removed from the cassette and oriented in molds. […] Tissue sections were cut at 4 microns from the cooled blocks. Paraffin ribbons with tissue were then laid out on a water bath and the floating tissue sections were collected onto microscope slides. The unstained tissue sections were then mounted on the slide and dried at 60° C. for 20 minutes. Finally, the tissue was deparaffinized and rehydrated for staining by transfer through xylene and a series of decreasing concentrations of alcohol to hematoxylin on an automated stainer (Sakura Tissue-Tek Prisma, Sakura Finetek, Torrance, Calif.). After a tap water rinse, the tissue on the slide was counterstained with eosin, dehydrated in an alcohol series, cleared in xylene and cover slipped (Sakura Tissue-Tek Glas g2) prior to histological examination by a veterinary diagnostician with experience in the histological examination of swine tissues.

[2] = Necropsy and histopathology examination of nursing piglets at 21 d; assay type: in vivo, swine; details: for Kidney: Mild tubular ectasia (number of piglets) / Kidney: Moderate ectasia (number of piglets) / Kidney: Prominent ectasia (number of piglets) / Kidney: Rare tubular ectasia (number of piglets) / Kidney: Within normal limits (number of piglets) / Liver: Within normal limits (number of piglets) / Small Intestine: Within normal limits (number of piglets) / Stomach: Mild gastritis (number of piglets) / Stomach: Mild vasculitis, muscle layer (number of piglets) / Stomach: Within normal limits (number of piglets): nursing piglets, 21 d
Description: as §1, §2

[3] = Total firocoxib exposure in piglets as a percentage of sow AUC; assay type: in vivo, swine
Description: The relative transfer of firocoxib from medicated sows to piglets was evaluated by comparing the piglet plasma drug concentration as a percentage of the sow plasma drug concentration at each time point. Total piglet exposure to firocoxib via milk consumed from treated dams was evaluated by comparing the firocoxib AUC for the piglets with the drug AUC calculated for the corresponding dams from each treatment. Exposure percentages were determined using the equation:
[formula] Statistical Analysis

[4] = Piglet average daily gain (ADG) from processing to weaning; assay type: in vivo, swine; details: piglets; for Average Daily Gain (ADG) Mean Difference: least squares means
Description: On day 21 post-drug injection in the sow, the body weight of each sow and piglet was recorded before weaning to calculate average daily weight gain.
Plasma cortisol concentrations and ADG were analyzed using a nonlinear mixed-effects analysis incorporating both fixed effects and random effects (PROC GLMMIX; SAS university edition v9.04.01, SAS Institute, Cary, N.C.). The population cortisol concentrations best fit a lognormal model. Time, treatment and their interaction were designated as fixed effects in the model with piglet nested in sow designated as a random effect. The effect of gender across treatments was examined using ANOVA to confirm that data from female piglets could be pooled to serve as a procedural control. Sow parity was also included as a covariate in the model. Where there was evidence of a treatment-by-time interaction (P<0.1), simple effect comparisons of LS means were conducted using the Tukey-Kramer adjustment for multiple comparisons. ADG outcomes best fit a Gaussian distribution. The effect of gender across treatments was also examined by ANOVA to clarify the effect of drug exposure from the effect of processing. For both outcomes, statistical significance was set a priori at P<0.05.
Eight piglets died between processing and weaning. Average daily gain in body weight (ADG) of the surviving piglets over the 21 d from processing to weaning was calculated by subtracting the body weight at processing from the body weight at weaning and dividing the result by the days from processing to weaning (FIG. 12 and FIG. 13). […] Specifically, ADG increased with the increasing doses of firocoxib administered to the lactating sows via injection.

CC1(C)OC(=O)C(OCC2CC2)=C1c1ccc(S(C)(=O)=O)cc1 [firocoxib]
macroscopic lesions on post-mortem examination ([1]; kidney, liver, stomach and small intestines, sows and piglets): No macroscopic lesions were evident | Kidney: Focal interstitial nephritis (number of sows) ([1]; sows, 0.5 mg/kg IM): 2 | Kidney: Mild tubular ectasia (number of sows) ([1]; sows, 0.5 mg/kg IM): 1 | Kidney: Within normal limits (number of sows) ([1]; sows, 0.5 mg/kg IM): 1 | Liver: Within normal limits (number of sows) ([1]; sows, 0.5 mg/kg IM): 4 | Small Intestine: Within normal limits (number of sows) ([1]; sows, 0.5 mg/kg IM): 4 | Stomach: Within normal limits (number of sows) ([1]; sows, 0.5 mg/kg IM): 4 | Kidney: Focal interstitial nephritis (number of sows) ([1]; sows, 1.0 mg/kg IM): 1 | Kidney: Mild tubular ectasia (number of sows) ([1]; sows, 1.0 mg/kg IM): 2 | Kidney: Within normal limits (number of sows) ([1]; sows, 1.0 mg/kg IM): 1 | Liver: Within normal limits (number of sows) ([1]; sows, 1.0 mg/kg IM): 4 | Small Intestine: Within normal limits (number of sows) ([1]; sows, 1.0 mg/kg IM): 4 | Stomach: Within normal limits (number of sows) ([1]; sows, 1.0 mg/kg IM): 4 | Kidney: Focal interstitial nephritis (number of sows) ([1]; sows, 1.5 mg/kg IM): 0 | Kidney: Mild tubular ectasia (number of sows) ([1]; sows, 1.5 mg/kg IM): 1 | Kidney: Within normal limits (number of sows) ([1]; sows, 1.5 mg/kg IM): 3 | Liver: Within normal limits (number of sows) ([1]; sows, 1.5 mg/kg IM): 4 | Small Intestine: Within normal limits (number of sows) ([1]; sows, 1.5 mg/kg IM): 4 | Stomach: Within normal limits (number of sows) ([1]; sows, 1.5 mg/kg IM): 4 | Kidney: Focal interstitial nephritis (number of sows) ([1]; sows, 2.0 mg/kg IM): 2 | Kidney: Mild tubular ectasia (number of sows) ([1]; sows, 2.0 mg/kg IM): 1 | Kidney: Within normal limits (number of sows) ([1]; sows, 2.0 mg/kg IM): 1 | Liver: Within normal limits (number of sows) ([1]; sows, 2.0 mg/kg IM): 4 | Small Intestine: Within normal limits (number of sows) ([1]; sows, 2.0 mg/kg IM): 4 | Stomach: Within normal limits (number of sows) ([1]; sows, 2.0 mg/kg IM): 4 | kidneys with ectatic tubules (number) ([1]; sows, all treatment groups): 5 | Kidney: Mild tubular ectasia (number of piglets) ([2]; sow dose 0.5 mg/kg IM): 5 | Kidney: Moderate ectasia (number of piglets) ([2]; sow dose 0.5 mg/kg IM): 0 | Kidney: Prominent ectasia (number of piglets) ([2]; sow dose 0.5 mg/kg IM): 5 | Kidney: Rare tubular ectasia (number of piglets) ([2]; sow dose 0.5 mg/kg IM): 1 | Kidney: Within normal limits (number of piglets) ([2]; sow dose 0.5 mg/kg IM): 1 | Liver: Within normal limits (number of piglets) ([2]; sow dose 0.5 mg/kg IM): 12 | Small Intestine: Within normal limits (number of piglets) ([2]; sow dose 0.5 mg/kg IM): 12 | Stomach: Mild gastritis (number of piglets) ([2]; sow dose 0.5 mg/kg IM): 5 | Stomach: Mild vasculitis, muscle layer (number of piglets) ([2]; sow dose 0.5 mg/kg IM): 2 | Stomach: Within normal limits (number of piglets) ([2]; sow dose 0.5 mg/kg IM): 5 | Kidney: Mild tubular ectasia (number of piglets) ([2]; sow dose 1.0 mg/kg IM): 9 | Kidney: Moderate ectasia (number of piglets) ([2]; sow dose 1.0 mg/kg IM): 0 | Kidney: Prominent ectasia (number of piglets) ([2]; sow dose 1.0 mg/kg IM): 0 | Kidney: Rare tubular ectasia (number of piglets) ([2]; sow dose 1.0 mg/kg IM): 1 | Kidney: Within normal limits (number of piglets) ([2]; sow dose 1.0 mg/kg IM): 2 | Liver: Within normal limits (number of piglets) ([2]; sow dose 1.0 mg/kg IM): 12 | Small Intestine: Within normal limits (number of piglets) ([2]; sow dose 1.0 mg/kg IM): 12 | Stomach: Mild gastritis (number of piglets) ([2]; sow dose 1.0 mg/kg IM): 6 | Stomach: Mild vasculitis, muscle layer (number of piglets) ([2]; sow dose 1.0 mg/kg IM): 2 | Stomach: Within normal limits (number of piglets) ([2]; sow dose 1.0 mg/kg IM): 4 | Kidney: Mild tubular ectasia (number of piglets) ([2]; sow dose 1.5 mg/kg IM): 9 | Kidney: Moderate ectasia (number of piglets) ([2]; sow dose 1.5 mg/kg IM): 0 | Kidney: Prominent ectasia (number of piglets) ([2]; sow dose 1.5 mg/kg IM): 3 | Kidney: Rare tubular ectasia (number of piglets) ([2]; sow dose 1.5 mg/kg IM): 0 | Kidney: Within normal limits (number of piglets) ([2]; sow dose 1.5 mg/kg IM): 0 | Liver: Within normal limits (number of piglets) ([2]; sow dose 1.5 mg/kg IM): 12 | Small Intestine: Within normal limits (number of piglets) ([2]; sow dose 1.5 mg/kg IM): 12 | Stomach: Mild gastritis (number of piglets) ([2]; sow dose 1.5 mg/kg IM): 6 | Stomach: Mild vasculitis, muscle layer (number of piglets) ([2]; sow dose 1.5 mg/kg IM): 3 | Stomach: Within normal limits (number of piglets) ([2]; sow dose 1.5 mg/kg IM): 3 | Kidney: Mild tubular ectasia (number of piglets) ([2]; sow dose 2.0 mg/kg IM): 5 | Kidney: Moderate ectasia (number of piglets) ([2]; sow dose 2.0 mg/kg IM): 1 | Kidney: Prominent ectasia (number of piglets) ([2]; sow dose 2.0 mg/kg IM): 3 | Kidney: Rare tubular ectasia (number of piglets) ([2]; sow dose 2.0 mg/kg IM): 0 | Kidney: Within normal limits (number of piglets) ([2]; sow dose 2.0 mg/kg IM): 3 | Liver: Within normal limits (number of piglets) ([2]; sow dose 2.0 mg/kg IM): 12 | Small Intestine: Within normal limits (number of piglets) ([2]; sow dose 2.0 mg/kg IM): 12 | Stomach: Mild gastritis (number of piglets) ([2]; sow dose 2.0 mg/kg IM): 2 | Stomach: Mild vasculitis, muscle layer (number of piglets) ([2]; sow dose 2.0 mg/kg IM): 1 | Stomach: Within normal limits (number of piglets) ([2]; sow dose 2.0 mg/kg IM): 9 | kidneys with ectatic tubules (number) ([2]; piglets, all treatment groups): 10 | sections of stomach lining with mild gastritis (number) ([2]; piglets, all treatment groups): 19 | % Exposure (AUClast, piglet vs sow) ([3]; sow dose 0.5 mg/kg): 41.42% | % Exposure (AUC∞, piglet vs sow) ([3]; sow dose 0.5 mg/kg): 43.51% | % Exposure (AUClast, piglet vs sow) ([3]; sow dose 1.0 mg/kg): 46.29% | % Exposure (AUC∞, piglet vs sow) ([3]; sow dose 1.0 mg/kg): 56.50% | % Exposure (AUClast, piglet vs sow) ([3]; sow dose 1.5 mg/kg): 46.83% | % Exposure (AUC∞, piglet vs sow) ([3]; sow dose 1.5 mg/kg): 53.31% | % Exposure (AUC∞, piglet vs sow) ([3]; sow dose 2.0 mg/kg): 26.75% | % Exposure (AUClast, piglet vs sow) ([3]; sow dose 2.0 mg/kg, 2 mg/kg): 25.32% and 25% | average daily gain, dose dependence ([4]; 21 d after processing, sow doses 0.5-2.0 mg/kg IM): dose-dependent increase in average daily gain | Average Daily Gain (ADG) Mean Difference ([4]; sow dose 0.5 mg/kg vs 1.0 mg/kg): 2.56 g | Average Daily Gain (ADG) Mean Difference ([4]; sow dose 0.5 mg/kg vs 1.5 mg/kg): -17.98 g | Average Daily Gain (ADG) Mean Difference ([4]; sow dose 0.5 mg/kg vs 2.0 mg/kg): -39.01 g | Average Daily Gain (ADG) Mean Difference ([4]; sow dose 1.0 mg/kg vs 1.5 mg/kg): -20.54 g | Average Daily Gain (ADG) Mean Difference ([4]; sow dose 1.0 mg/kg vs 2.0 mg/kg): -41.57 g | Average Daily Gain (ADG) Mean Difference ([4]; sow dose 1.5 mg/kg vs 2.0 mg/kg): -21.03 g | weight gain (ADG) over 21 d from processing to weaning ([4]; sow dose 2.0 mg/kg vs 0.5 mg/kg (P=0.0076) or 1.0 mg/kg (P=0.0047)): gained more weight
